Assay results reported in patent US20240010683A1, “Peptide Inhibitors of Human Mitochondrial Fission Protein 1 and Methods of Use” (The Medical College of Wisconsin, Inc., priority 2020, published 2024).
Entries after “also recorded” stand apart in the source; their conditions may differ.

Legend:
[1] = test system: aortic endothelium of diabetic mice; conditions: cited from earlier work
[2] = test system: human resistance arteries; experiment: Endothelium-dependent vasodilation to acetylcholine, resistance arteries from healthy subjects exposed to high or low glucose; conditions: for impaired endothelium-dependent vasodilation to acetylcholine: high glucose 33 mM six hours, 1-10 μM peptide
Description: (§1) Human Resistance Artery Acquisition: Human resistance arteries from adipose samples were obtained from the upper outer quadrant of the gluteal adipose pad as previously described.^2,8,13,15,16 Briefly, following sterilization and anesthesia with 1% lidocaine, a 1-1.5 cm incision is made in the upper outer quadrant of the gluteal adipose pad. An approximately 8 cm^3 volume of adipose tissue was removed by sharp dissection. After achieving hemostasis, the wounds were closed with 1-2 absorbable deep dermal sutures and the epidermal layer closed using either Dermabond or steristrips.
(§2) Transfection of human resistance arteries with siRNA constructs was performed as previously described.^8,13 Briefly, resistance arteries dissected from adipose tissue were suspended in a culture myograph chamber (204 CM, DMT, Ann Arbor). One end of the vessel was sutured onto a glass pipette within a micro-organ chamber. Prior to suturing the second end of the arteriole to a glass pipette, Fis1 siRNA, Drp1 siRNA (20 nM in optiMEM using Lipofectamine RNAiMax, Invitrogen) or control scrambled siRNA (20 nM) were gently injected, into the vessel lumen. The loose end of the vessel is then tied onto another glass pipette, and the vessel is suspended in the chamber and placed on a myograph stage bathed in physiological buffer at 37° C. and pressurized to 60 mmHg. Following 4-6 hours of incubation, the siRNA is slowly washed out of the lumen over 24 hours at a low shear rate (□<5 dyn/cm^2).
(§3) Measurement of Endothelium-Dependent Vasoactivity: Transfected resistance arteries from healthy individuals were exposed to either normal glucose conditions (NG, glucose level 5 mM), 2 hours of low glucose (LG, glucose level 2.5 mM) or 6 hours of high glucose (HG, glucose level 33 mM). All studies in vessels from patients with T2DM were performed at 5 mM glucose. Vessels were pre-constricted approximately 50% of resting diameter with endothelin-1 (Sigma Aldrich, USA). The constricted arterioles are then exposed to acetylcholine (Ach) at serially increasing doses from 10^−10 to 10^−5 M, and changes in vessel diameter were measured using digital calipers and videomicroscopy. Following the 10^−5 M dose, vessels were exposed to 200 μM papaverine to test the smooth muscle reactivity. Following a 30-minute washout period, the same arterioles were re-constricted and incubated with L-NG-nitroarginine methyl ester (L-NAME, 100 μM), a direct inhibitor of nitric oxide synthase, for 30 minutes and vasodilation subsequently was remeasured following the exposure to Ach 10^−10 to 10^−5 M.

[3] = test system: resistance arterioles from healthy humans over-expressing Fis1 in the endothelium; experiment: Endothelium-dependent vasodilation in resistance arterioles over-expressing Fis1; design: species or system human; conditions: 1 μM peptide, one hour of exposure
Protocol: FIG. 19. Pep213 can reverse impaired endothelium-dependnet vasodilation in resistance arterioles. One hour of exposure to pep213 attached to a tat sequence to improve cell penetration (1 μM pep213-tat) reverses impaired endothelium-dependent vasodilation in resistance arterioles from healthy humans over-expressing Fis1 in the endothelium (overexpression of human Fis1 achieved using lentiviral vector to transfect the vessel with a plasmid for endothelial-specific over-expression of human Fis1). 1 μM of a scrambled peptide using the same amino acids as pep213 in a random order has no effect on endothelium dependent vasodilation to acetylcholine. Pep213-tat induce improves endothelium-dependent vasodilation in an eNOS-dependent manner (as determined by the loss in acetylcholine induced endothelium-dependent vasodilation with the use of eNOS inhibitor L-NAME). N=5, P<0.001 overall. *P<0.05 at the indicated doses of acetylcholine. Ach-acetylcholine.
Further the peptide of the present invention, e.g., Pep213, can reverse impaired endothelium-dependent vasodilation in resistance arterioles. […] Pep213-tat induce improves endothelium-dependent vasodilation in an eNOS-dependent manner (as determined by the loss in acetylcholine induced endothelium-dependent vasodilation with the use of eNOS inhibitor L-NAME). […]

[4] = test system: vessels from T2DM subjects; experiment: Endothelium-dependent vasodilation to acetylcholine, resistance vessels from T2DM subjects; design: species or system human; conditions: for impaired endothelium-dependent vasodilation to acetylcholine: 5 mM glucose, 1 or 10 μM peptide
Description: as §1, §2, §3

[5] = test system: human microvascular endothelial cells (HMVEC); experiment: NO bioavailability (DAF2-DA) in endothelial cells treated with peptide; type: cell-based; conditions: 1 μM peptide, one hour, 37° C.
Protocol: FIG. 17. The bioavailability of nitric oxide (NO) increased in human microvascular endothelial cells (HMVEC) treated with novel peptide pep213. HMVEC cells were treated with 1 μM pep213-tat for one hour at 37° C. and NO was measured with diaminofluorescein-2 diacetate (DAF2-DA) staining. N=3,* P=0.04.
(§4) Cells in Culture: To measure nitric oxide (NO) bioavailability in HMEC-1 cells and arterioles, a fluorescent NO marker, 4,5-diaminofluorescein diacetate (DAF2-DA from Cayman Chemical) was used. In a dark room, cells were incubated with or without 100 μM L-NAME for 2 hours followed by 15 minutes of incubation with DAF2-DA (5 μM) at 37° C. Fluorescence intensity was measured using a SPECTRAFluor Plus plate reader (Tecan, Morrisville, NC) using excitation and emission wavelengths of 485 nm and 535 nm, respectively. […] The arterioles were then washed with PBS buffer, mounted on a slide, and imaged by fluorescence microscopy. Untreated and unstained arterioles were used as controls for fluorescence background interference. Both treated and control vessels were measured using the same gain settings and the results were analyzed using Meta Morph 7.8 software (Universal imaging, West Chester, PA).

[6] = test system: ApoE knockout mice; conditions: cited from earlier work
[7] = test system: human resistance arteries; experiment: NO bioavailability (DAF2-DA fluorescence) in human resistance arteries; conditions: healthy vessels, HG and LG
Protocol: as §4, with “respectively. Human Resistance Arteries: Two vessels were obtained from a subset of healthy subjects and each vessel was cut in half to allow for four experimental conditions which included transfection with Fis1 siRNA or Drp1 siRNA with and without concomitant exposure to L-NAME for 30 minutes and transfection with scrambled siRNA control with and without concomitant exposure to L-NAME at room temperature.” for “respectively.”

[8] = test system: HMEC-1 cells; experiment: NO production and eNOS activation in HMEC-1 cells; type: cell-based, human; conditions: non-transfected HMEC-1 cells
Protocol: FIG. 14. Phosphorylation of eNOS at Ser1177 and NO production increased in HMEC-1 cells upon activation with Ca+2 ionophore A23187 (A) representative western blot of p-eNOS-Ser1177) and β-actin with and without addition of A23187.(B) Quantitative measure of p-eNOS-(Ser1177) treated with and without A23187 (P=0.03, n=6). (C) NO production as measured using DAF2-DA (5 uM) increased upon addition of A23187 (n=4, P=0.02).
FIG. 15. […] Cells exposed to L-NAME were incubated with L-NAME for 2 hours followed by a 15-minute incubation with DAF2-DA (5 uM) prior to measurement of fluorescence intensity.
as §4, with “In a dark room, cells were incubated with or without 100 μM L-NAME for 2 hours followed by 15 minutes of incubation with DAF2-DA (5 μM) at 37° C.” left out

[9] = test system: cardiac myocytes; conditions: rat model of T2DM (OLEFT), cited from earlier work

N#C[C@@H]1CCCN1C(=O)CNC12CC3CC(CC(O)(C3)C1)C2 [vildagliptin]
NO production ([1]; aortic endothelium of diabetic mice): increasing | Drp1 translocation from the cytosol ([1]; diabetic mice): reduces | ROS production ([1]; diabetic mice): reduces | expression of Fis1 and Drp1 ([1]; diabetic mice): reduces | mitochondrial fission ([1]; diabetic mice): reduces

YGRKKRRQRRRGSGSGSSHKHDPLPYPHFLL (Synthetic - Pep213 fused to TAT (pep213-TAT))
papaverine response (smooth muscle reactivity) ([2]; 200 μM papaverine, healthy and T2DM vessels): did not impact | impaired endothelium-dependent vasodilation to acetylcholine ([2]; healthy vessels): reversed | impaired endothelium-dependent vasodilation to acetylcholine ([2]; healthy vessels, listed as Pep213-tat): reversed | impaired endothelium-dependent vasodilation to acetylcholine ([2]; healthy vessels, listed as Tat sequence-linked pep213): improved | impaired endothelium-dependent vasodilation to acetylcholine ([2]; healthy vessels, listed as pep213-TAT): significant improvement | impaired endothelium-dependent vasodilation to acetylcholine [3]: reverses | impaired endothelium-dependent vasodilation to acetylcholine ([4]; T2DM vessels): reverses | impaired endothelium-dependent vasodilation to acetylcholine ([4]; T2DM vessels, listed as Pep213-tat): reversed | impaired endothelium-dependent vasodilation to acetylcholine ([4]; T2DM vessels, listed as Tat sequence-linked pep213): improved | impaired endothelium-dependent vasodilation to acetylcholine ([4]; T2DM vessels, listed as pep213-TAT): significant improvement | NO bioavailability (DAF2-DA fluorescence) [5]: increased | NO bioavailability (DAF2-DA fluorescence) ([5]; listed as pep213-TAT): significant increase

CN(C)C(=N)N=C(N)N [Metformin]
atherosclerotic formation [6]: reduces

COC(=O)[C@@H](N)CCCNC(=N)N[N+](=O)[O-] [L-NAME, L-NG-nitroarginine methyl ester]
effect of L-NAME on protective effect of Fis1 siRNA ([2]; healthy vessels, HG and LG): completely blocked | effect of L-NAME on improvement seen with pep213-tat ([2]; healthy vessels, high glucose, L-NAME 100 μM): abolished the improvements; also recorded: reversed all improvements | effect of L-NAME on Fis1 siRNA increase in DAF2-DA fluorescence [7]: completely abolished | effect of L-NAME on improvement seen with pep213-TAT ([4]; T2DM vessels, L-NAME 100 μM): abolished the improvements | effect of L-NAME on favorable effect of Fis1 siRNA ([4]; vessels from diabetic subjects): completely attenuated

CNc1ccc2oc(C[C@H]3O[C@@]4(CC[C@H]3C)O[C@H]([C@H](C)C(=O)c3ccc[nH]3)[C@H](C)C[C@H]4C)nc2c1C(=O)O [A23187]
NO production (DAF2-DA fluorescence intensity) [8]: significant increase; also recorded: increased | eNOS phosphorylation at Ser1177 [8]: significant increase; also recorded: increased

OC[C@H]1O[C@@H](c2ccc(Cl)c(Cc3ccc(O[C@H]4CCOC4)cc3)c2)[C@H](O)[C@@H](O)[C@@H]1O [Empagliflozin]
mitochondrial superoxide dismutase, SOD2 ([9]; cardiac myocytes): up-regulated | Fis1 over-expression [9]: reduced | mitochondrial fission [9]: reduced
